Data taken from patent US20210214341A1, “SUBSTITUTED PYRIDINYL AZETIDINONE DERIVATIVES FOR USE IN TREATING CANCER AND OTHER DISEASES” (The Board of Regents of the University of Texas System, priority 2018, published 2021).
Like-named read-outs stand apart in the source and are kept apart here.

Experiments:
[1] = test system: pancreatic cancer cells PANC-1 (ATCC CRL-1469); test: SRB (Sulforhodamine B) assay in PANC-1 cells; type: cell-based; conditions: Homo sapiens, PANC-1
Experimental: (§1) FIGS. 1A-1B show the IC50 curves of the twelve investigational β-lactams in pancreatic cancer cells PANC-1 (ATCC CRL-1469) and normal pancreatic ductal epithelial cells (ATCC CRL-4038). The GraphPad Prism software was used to process the results. The IC50 values were determined by SRB (Sulforhodamine B) assay following standard procedure. PANC-1 cells were plated in 96 well plates and treated with 1, 10, 100, 1000 and 10,000 nM of each of the drugs in triplicate for 72 hrs. Cells were fixed, washed and stained with SRB dye, the stained cells were washed, and the dye solubilized. It was read using a plate reader at 565 nm. The IC50 values were calculated assuming that the 10 μM sample has reached saturation. Following similar way, IC50 values were determined for normal pancreatic ductal epithelial cells.
(§2) As mentioned earlier, PANC-1 is referred to generically as the “gold standard of pancreatic cancers” representing as it does almost total resistance to GEM, the first line treatment currently used in clinical situations. Pancreatic cancer cells PANC-1 (ATCC CRL-1469) and normal pancreatic ductal epithelial cells (ATCC CRL-4038) were used in this study. The GraphPad Prism software was used to process the results. […] Cells were fixed, washed and stained with SRB dye, the stained cells were washed, and the dye solubilized. It was read using a plate reader at 565 nm. The IC50 values were calculated assuming that the 10 μM sample has reached saturation. Following similar way, IC50 values were determined for normal pancreatic ductal epithelial cells.

[2] = test system: normal pancreatic ductal epithelial cells (ATCC CRL-4038); test: SRB (Sulforhodamine B) assay in normal pancreatic ductal epithelial cells; type: cell-based; conditions: Epithelial cell; 2D-culture, SRB, average of 3 runs; read-out: IC50 (NPC)
Experimental: as §1, §2

[3] = test system: PANC-1 cells; test: BrdU incorporation immunostaining; type: cell-based, human; conditions: compared to control
Experimental: BrdU (5-bromo-2′-deoxyuridine) incorporation to proceed with immunostaining coverslip slides with Prolong® Gold Antifade reagent were visualized under microscope. Alexa Fluor® 488 (green) was used for BrdU staining along with nuclear marker DAPI (blue). BrdU images were co-localized with nuclear marker DAPI blue.
Diluted BrdU in fresh, pre-warmed growth medium to a final concentration of 0.03 mg/mL. This mixture was added to cells and incubated at 37° C. for 30 min. The medium was aspirated; cells were completely covered with 70% ethanol for 5 min. The fixative was aspirated and the cells were rinsed three times in 1×PBS for 5 min each. Therefore, 1.5 mL HCl and incubated for 30 min at room temperature. Then the HCl was aspirated and rinsed to times in 1×PBS for 5 min each. Subsequent proceeding for immunostaining followed the below steps: The cells were submerged with blocking buffer for 60 min and subsequently incubated with primary antibody (BrdU Mouse mAb) for overnight at 4° C. Therefore, the cells were rinsed three times in 1×PBS for 5 min each and incubated in fluorochrome-conjugated secondary antibody diluted in antibody dilution buffer for 1-2 h at room temperature in the dark and then rinsed for three times in 1×PBS for 5 min each. Coverslip slides with Prolong® Gold Antifade reagem were visualized under microscope. […]

[4] = test system: HS 766T; test: Cytotoxicity IC50 in HS 766T cells; type: cell-based; conditions: Homo sapiens, Hs766T; HS 766T cell line; read-out: IC50 (mean ± standard error)
Excerpt: (§3) B. Cytotoxicity Studies: Determination of IC50 Values (Single Run) in Capan-2, HPAC. HPAF-II, and HS766T Cell Lines
(§4) Capan-2, HPAC. HPAF-H, and HS766T. The compounds A, D, E, G, and H were chosen randomly, out of twelve β-laclam molecules, to carry out this evaluation.

[5] = test system: HPAF-II; test: Cytotoxicity IC50 in HPAF-II cells; type: cell-based; conditions: Homo sapiens; HPAF-II cell line; read-out: IC50 (mean ± standard error)
Excerpt: as §3, §4

[6] = test system: Phospho-Histone H2A.X (Ser139) in PANC-1 cells; test: ICC-IF with Phospho-Histone H2A.X (Ser139) (γ-H2AX staining); type: cell-based, human; conditions: 1 μM, compared to control
Excerpt: This immunocytochemistry-immunofluorescence (ICC-IF) with Phospho-Histone H2A.X (Ser139) assay enables the quantitative detection of the histone variant H2AX, phosphorylated on serine 139. This modification serves as a sensitive biomarker for the detection of such breaks, localizing the site of DNA repair. Gamma-H2AX triggers cell cycle arrest and DNA damage response repair, and this assay is used to study genome stability, the cell cycle, DNA repair, and it serves as a biomarker for cancer and offers enhanced convenience over other immunoassay technologies. The PANC-1 cells were grown, treated with 1 μM concentration of the compound “D”, fixed and strained directly in chamber slides. Cells were submerged with blocking buffer for 60 min and then incubated with primary antibody Phospho-Histone H2A.X (Ser139) for overnight at 4° C. Then the cells were rinsed for three times in 1×PBS for 5 min each. The specimen was incubated in fluorochrome-conjugated secondary antibody diluted in antibody dilution buffer for 1-2 h at room temperature in the dark and then rinsed for three times in 1×PBS for 5 min each. […]
This assay was also performed with the compound D, prior to the determination of IC50 values in normal pancreatic ductal epithelial cell lines. This assay enables the quantitative detection of the histone variant H2AX, phosphorylated on serine 139. […]

[7] = test system: PANC-1 cells; test: Annexin V assay to determine apoptosis; type: cell-based, human; conditions: 0.5, 1, and 2 μM, 16 hrs
Experimental: Cell death was identified as apoptosis through Annexin V assay. For this study, PANC-1, the most commonly known drug-resistance pancreatic cancer cell line was used. […] Error bars show standard deviation (n=3). For optimal throughput, final cell concentrations were maintained between 2×10^4 and 1×10^5 cells/well (or 1×10^5 to 5×10^5 cells/mL). Doxorubicin was used as control at a concentration of 5 μM for 16 hrs. For this study, PANC-1, the most commonly known drug-resistance pancreatic cancer cell lines were used. […] Error bars show standard deviation (n=3). For optimal throughput, final cell concentrations were maintained between 2×10^4 and 1×10^5 cells/well (or 1×10^5 to 5×10^5 cells/mL). Doxorubicin was used as a control at a concentration of 5 uM for 16 hrs (FIG. 5). Apoptosis was identified as the mechanism of cell death.

[8] = test system: HPAC; test: Cytotoxicity IC50 in HPAC cells; type: cell-based; conditions: Homo sapiens; HPAC cell line; read-out: IC50 (mean ± standard error)
Excerpt: as §3, §4

[9] = test system: CaPan-2; test: Cytotoxicity IC50 in CaPan-2 cells; type: cell-based; conditions: Homo sapiens; CaPan-2 cell line; read-out: IC50 (mean ± standard error)
Excerpt: as §3, §4

[10] = test system: drug-resistant pancreatic cancer cell lines; test: IC50 against drug-resistant pancreatic cancer cell lines; type: cell-based; conditions: Homo sapiens, range over cell lines
[11] = test system: PANC-1 cells; test: Flow cytometric cell cycle analysis; type: cell-based, human; conditions: tested for 24, 48 and 72 hrs
Experimental: The noise was cleared. […] After 72 hrs all the cells (including floaters) were collected, the adhered cells were trypsinized and collected as well. The cells were then centrifuged in a 50 mL centrifuge tube. The pellet was washed with PBS and reconstituted in 500 μL PBS. The cells were then fixed in ice cold ethanol by adding the ethanol dropwise while gently vortexing the cells. Stored at 4° C. for overnight. The cells were then centrifuged, and the pellet reconstituted in Guava cell cycle reagent and analyzed in a Guava flow cytometer. A similar experiment was conducted with normal pancreatic ductal epithelial cells (NPC) and the drug treatment was done according to the IC50 values observed in the 2D assay conducted on them (Table E). Please note that 2N represents G0/G1 and 4N for G2 phases.
After 72 hrs all the cells (including floaters) were collected, the adhered cells were trypsinized and collected as well. The cells were then centrifuged in a 50 mL centrifuge tube. The pellet was washed with PBS and reconstituted in 500 μL PBS. The cells were then fixed in ice cold ethanol by adding the ethanol dropwise while gently vortexing the cells. […] The cells were then centrifuged, and the pellet reconstituted in Guava cell cycle reagent and analyzed in a Guava flowcytometer. […] First set of data with PANC-1 cells were analyzed by using FlowJo software, the noise was cleared (FIG. 3). […]

[12] = test system: PANC-1 tumorspheres; test: 3D-tumorsphere formation assay; type: cell-based, human
Experimental: Number of tumorspheres formed can be used to distinguish the efficacy of different anticancer drugs in a more physically acceptable method than 2D culture. Based on selectivity and toxicity towards PANC-1 cells in comparison to normal pancreatic ductal epithelial cells (Table D), six compounds (A, B, C, E, F, and G) were chosen for the 3D-tumorsphere formation assay. The assay was carried out by following the protocol developed by Johnson et al., (2013). PANC-1 cells (5000) were plated as single cells in Corning ultra-low attachment 24 well plates in 0.5 ml DMEM+10% FBS. The cells were grown in a humidified atmosphere of 5% CO2 for 168 hrs. 0.1 ml Media was added on 72nd and 144 hrs. The β-lactams were dissolved in DMSO and maintained at −20° C. On the day of assay, on the addition of media, the drugs were freshly diluted in media. The final concentrations of drugs were 0, 1 nM, 10 nM, 100 nM, 1 uM, 10 μM. After 144 hours the total number tumorspheres that were larger than 100 micrometers were counted in a field of 1 mm×1 mm at 10× magnification in a bright field microscope. The data was plotted and the IC50 value was calculated.
3D-tumorsphere formation assay is considered to be a fast and economical intermediary step between in vitro and in vivo biological evaluations. A tumorsphere is a solid, spherical formation developed from the proliferation of a single cancer stem/progenitor cell in 3D culture. These cells are easily distinguishable from single or aggregated as they appear to become fused together and individual cells cannot be appearing to become fused together and individual cells cannot be identified. The size can vary from less than 50 micrometers to 250 micrometers. The number of tumorspheres formed can be used to characterize the cancer stem cell population within different in vitro cultured cancer cell lines. The number of tumorspheres formed can also be used to distinguish the efficacy of different anticancer drugs in a more physically acceptable method than 2D culture. Based on selectivity and toxicity towards PANC-1 cells in comparison to normal pancreatic ductal epithelial cells (Table D), six compounds (A, B, C, E, F, and G) were chosen for the 3D-tumorsphere formation assay. The assay was carried out by following the protocol developed by Johnson et al., (2013). […] The below steps were followed to accomplish the assay. • 5000 PANC-1 cells were plated as single cells in Corning ultra-low attachment 24 well plates in 0.5 ml DMEM+10% FBS. • Cells were grown in a humidified atmosphere of 5% CO2 for 168 hrs. 0.1 ml Media was added on 72nd and 144 hrs. • Drugs were dissolved in DMSO and maintained at −20° C. On the day of assay, on the addition of media, the drugs were freshly diluted in media. • The final concentrations of drugs were 0, 1 nM, 10 nM, 100 nM, 1 μM, 10 μM. • After 144 hrs the total number tunorspheres that were larger than 100 micrometers were counted in a field of 1 mm×1 mm at 10× magnification in a bright field microscope. The data was plotted and the IC50 value was calculated.

[13] = 2D-culture, SRB, 72 hrs, average of 3 runs, read-out: IC50 (PANC-1)

`O=C1[C@@H](OS(=O)(=O)C2CCC2)[C@H](c2ccc(F)cn2)N1c1cc2c3ccccc3ccc2c2ccccc12` (racemic) [D, (±)-Trans-N-(chrysen-6-yl)-2-(5-fluoropyridin-2-yl)-4-oxoazetidin-3-yl cyclobutanesulfonate] was tested, and the IC50 [1, 13] was 0.118 µM, the IC50 [2] was 60.8 nM and the “rate of DNA replication and subsequent cell proliferation (BrdU incorporation)” value [3] was “significantly low”. For the same molecule, the IC50 [4] was 730 ± 400 nM, the IC50 [5] was 1390 ± 400 nM and the “γ-H2AX (phospho-H2AX) staining” value [6] was “positive staining”. For the same molecule, the “mechanism of cell death” value [7] was “Apoptosis”.

With `Nc1ccn([C@@H]2O[C@H](CO)[C@@H](O)C2(F)F)c(=O)n1` [Gemcitabine, reference compound] the IC50 [1, 13] was 37.9 µM, the IC50 ([1]; in vitro, triplicate, read-out: PANC-1 cell lines IC50) was 37.9 µM and the IC50 [8] was > 50 µM. For the same molecule, the IC50 [4] was 16300 ± 600 nM, the IC50 [5] was > 50000 nM and the IC50 [9] was > 50 µM. For the same molecule, the IC50 [10] was ≥ 16 µM.

`CS(=O)(=O)O[C@@H]1C(=O)N(c2cc3c4ccccc4ccc3c3ccccc23)[C@H]1c1ccc(F)cn1` (racemic) [A, (±)-Trans-N-(chrysen-6-yl)-2-(5-fluoropyridin-2-yl)-4-oxoazetidin-3-yl methanesulfonate] was tested, and the IC50 [1, 13] was 0.0212 µM, the IC50 [2] was 449 nM and the IC50 [8] was > 10 µM. The “time of maximum cell cycle blockage” value [11] was 72 h, the IC50 [4] was 240 ± 380 nM and the IC50 [5] was 980 ± 380 nM. The IC50 [9] was > 10 µM, the “activity in 3D-tumorsphere formation assay compared with 2D-culture” value [12] was “higher activity in 3D-tumorphere formation assay than 2D-culture” and the IC50 ([12]; Homo sapiens, tumorspheres larger than 100 micrometers counted after 144 hrs) was 18.1 nM.
